Source: US20090280141A1, “Streptococcal Genes” (priority 2000, published 2009)

B1: Sit1D: Protein encoded by S. pneumoniae gene Sit1D (SEQ ID NO. 8), putative iron-binding lipoprotein; His-tagged, expressed in E. coli (protein, listed as Salmonella pneumoniae)
chain: MKTSLKLYFTALVASFLLLLGACSTNSSTSQTETSSSAPTEVTIKSSLDEVKLSKVPEKIVTFDLGAADTIRALGFEKNIVGMPTKTVPTYLKDLVGTVKNVGSMKEPDLEAIAALEPDLIIASPRTQKFVDKFKEIAPTVLFQASKDDYWTSTKANIESLASAFGETGTQKAKEELTKLDKSIQEVATKNESSDKKALAILLNEGKMAAFGAKSRFSFLYQTLKFKPTDTKFEDSRHGQEVSFESVKEINPDILFVINRTLAIGGDNSSNDGVLENALIAETPAAKNGKIIQLTPDLWYLSGGGLESTKLMIEDIQKALK
modifications: His tag; CDS (1)..(966)
notes: His-tagged, expressed in E. coli

Legend:
[1] = tested on: S. pneumoniae strains; assay: Streptonigrin disc sensitivity (zone of growth inhibition); assay type: cell-based
Description: (§1) For bacterial survival streptonigrin assays, stocks of S. pneumoniae strains grown in Chelex-THY broth and stored at −70° C. were defrosted on ice, pelleted by centrifugation at 20000 g at 4° C. and resuspended in THY to which 2.5 μg ml^−1 of streptonigrin (Sigma) was then added. The reactions were incubated at 37° C., and aliquots of the reaction cultures taken at 40 and 60 minutes after adding streptonigrin were diluted and plated. Cfu at each time point were expressed as a percentage of the cfu prior to adding streptonigrin and the results presented as a ratio of the wild-type strain's results. To assess sensitivity to streptonigrin discs, S. pneumoniae strain stocks cultured in Chelex-THY broth were plated on RPMIm plates with or without 50 μM FeCl3 and 400 μM DIP supplementation at a density of several thousand colonies per plate. Antibiotic discs impregnated with 5 μg streptonigrin were placed onto the plates. After incubation for 20 hours at 37° C. in 5% CO2, the width of the zone of growth inhibition surrounding each disc was measured and confidence intervals for three separate results calculated.

[2] = tested on: S. pneumoniae strains; assay: Streptonigrin bacterial survival assay; assay type: cell-based; conditions: 60 minutes incubation with 2.5 μg ml^-1 streptonigrin
Description: as §1

[3] = tested on: S. pneumoniae; assay: Sit1D and Sit2A immunisation experiment with IP S. pneumoniae challenge; assay type: in vivo; conditions: BALBc mice, 10 ug protein IP three times, challenged IP with 10,000 S. pneumoniae cells
Description: BALBc were mice given 10 ug of protein (expressed in pQE30 expression vectors in E. coli and purified using the His-tag) via IP, on three occasions separated by 7-10 days, and then challenged 2 weeks after the last immunisation with 10,000 S. pneumoniae cells inoculated IP.
The other proteins were Sit1D, Sit2A, Sit1D combined with Sit2A, Sit1D combined with Pdb, and Sit2A combined with Pbd.

Molecule | sensitivity to 5 ug streptonigrin discs ([1]; Sit1A-/Sit2A- double mutant, in the presence of 400 μM DIP) | zone of growth inhibition surrounding a streptonigrin disc, versus wild-type strain ([1]; Sit- strains on RPMIm plates) | fold more cells surviving than wild type cells ([2]; Sit1A- strain) | fold more cells surviving than wild type cells ([2]; Sit1A-/Sit2A- strain) [fold] | fold more cells surviving than wild type cells ([2]; Sit2A- strain) | protection against S. pneumoniae challenge (survival, FIG. 7) [3]
COC1=C(N)C(=O)c2nc(-c3nc(C(=O)O)c(C)c(-c4ccc(OC)c(OC)c4O)c3N)ccc2C1=O [streptonigrin] | completely resistant | smaller | Approximately 10 fold | ~1000 | Approximately 10 fold | –
B1 | – | – | – | – | – | as protective as Pdb
